# Measurements from PMC9643456, “Matching amino acids membrane preference profile to improve activity of antimicrobial peptides” (Communications Biology, 2022).
# Ends that are not written are not given here.
# Tests used:
# [1] = system: human red blood cells; assay: Hemolytic activity; assay type: cell-based; conditions: red cells of human, 18 h
# In short: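 Peptides (100 μM down to 0.78 μM) were incubated with 4% final human erythrocytes in PBS for 18 h at 37 °C. Supernatant absorbance at 540 nm after centrifugation was scaled to 1% Triton X-100 (100%) and no peptide (0%); melittin served as positive control; triplicate runs.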
# [2] = system: MDR P. aeruginosa; assay: microbe, parasite or virus in culture; conditions: for MIC in 0.2% albumin and 0.01% AcOH added CLSI standard condition, MDR P. aeruginosa: CAMHB plus 0.2% bovine serum albumin and 0.01% acetic acid, values marked * in Table 2; for Minimum inhibitory concentrations, MDR P. aeruginosa: CLSI broth microdilution, CAMHB with 50 mg/L Ca2+, 10 mg/L Mg2+, 5 × 10^5 CFU/ml, 18 h 37 °C, no visible turbidity, triplicate, strain CCARM 2180
# In short: (§1)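 Broth microdilution per CLSI in cation-adjusted Mueller–Hinton broth with added calcium (50 mg/L) and magnesium (10 mg/L); mid-log bacteria at a final 5 × 10^5 CFU/ml were incubated with peptide for 18 h at 37 °C. MIC was the lowest concentration without visible turbidity, in triplicate.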
# [3] = system: MDR E. faecalis; assay: microbe, parasite or virus in culture; conditions: for MIC in 0.2% albumin and 0.01% AcOH added CLSI standard condition, MDR E. faecalis: CAMHB plus 0.2% bovine serum albumin and 0.01% acetic acid, values marked * in Table 2; for Minimum inhibitory concentrations, MDR E. faecalis: CLSI broth microdilution, CAMHB with 50 mg/L Ca2+, 10 mg/L Mg2+, 5 × 10^5 CFU/ml, 18 h 37 °C, triplicate, strain ATCC 51575
# In short: as §1
# [4] = system: MDR S. aureus; assay: microbe, parasite or virus in culture; conditions: for MIC in 0.2% albumin and 0.01% AcOH added CLSI standard condition, MDR S. aureus: CAMHB plus 0.2% bovine serum albumin and 0.01% acetic acid, values marked * in Table 2; for Minimum inhibitory concentrations, MDR S. aureus: CLSI broth microdilution, CAMHB with 50 mg/L Ca2+, 10 mg/L Mg2+, 5 × 10^5 CFU/ml, 18 h 37 °C, triplicate, strain KCCM 40510
# In short: as §1
# [5] = system: MDR A. baumannii; assay: microbe, parasite or virus in culture; conditions: for MIC in 0.2% albumin and 0.01% AcOH added CLSI standard condition, MDR A. baumannii: CAMHB plus 0.2% bovine serum albumin and 0.01% acetic acid, values marked * in Table 2; for Minimum inhibitory concentrations, MDR A. baumannii: CLSI broth microdilution, CAMHB with 50 mg/L Ca2+, 10 mg/L Mg2+, 5 × 10^5 CFU/ml, 18 h 37 °C, triplicate, strain ATCC BAA-1605
# In short: as §1
# [6] = Maximum soluble concentration / turbidity; assay type: physicochemical; conditions: for Maximum soluble concentration in PBS: lyophilized peptide reconstructed in PBS at 200-6.25 μM, visible turbidity checked every 12 h for 5 days, at least twice
# Experimental: Supplementary Methods Bacteria preparation, Antimicrobial peptides preparation, Minimal-inhibitory-concentration measurements, Hemolysis-activity measurements, Tryptophan fluorescence measurements, Isothermal titration calorimetry measurements, Bacteria membrane ion permeation measurements, Outer-inner membrane permeation, Field-emission scanning electron microscopy and Antimicrobial kinetics were performed as described in Materials and Methods. Liposome (LUV) preparation. Bacterial-membrane-mimic DMPC/DMPG unilamellar vesicles (LUV) and mammalian- membrane-mimic PC/cholesterol vesicles with 100-nm diameters were prepared by extrusion. LiposoFast Liposome Factory Basic unit with stabilizer (Avestin, Ottawa, Canada) was used to extrude liposomes 50 times through a polycarbonate membrane filter (pore diameter, 100 nm; filter diameter, 0.75 inches) (Avestin). […] rac-(1-glycerol)) (sodium salt) (DMPG) (Avanti, Alabama, USA); 1,2-Dimyristoyl-sn-glycero-3-phosphocholine (DMPC) (Avanti); and cholesterol (Sigma, Darmstadt, Germany) were used. For circular dichroism, isothermal titration calorimetry, tryptophan fluorescence, and dynamic light scattering experiments, liposomes were reconstructed and resuspendedwith phosphate-buffered saline (PBS; Welgene Inc, Gyeongsangbuk-do, Korea). For calcein-permeation tests, liposomes were reconstructed with calcein solutions (80 mM, 40 mM, 30 mM, 20 mM, and 10 mM) (Sigma, Darmstadt, Germany), purified with Sephadex-G50 columns (Pharmacia biotech, Stockholm, Sweden), and resuspended with PBS. Maximum-soluble -concentration measurements. […] turbidity with PBS. The lowest concentration of peptide without visible turbidity was determined to be the maximu m soluble concentration. Each experiment was performed at least twice. Circular dichroism (CD) spectrum. DMPC/PG -liposome, PC/cholesterol -liposome, and peptide stock solutions were diluted in PBS. For circular dichroism, PBS with neither liposome nor peptides was also prepared. Liposomes and peptides were mixed to […] Samples were transferred into type J/1 cuvettes (Jasco, Tokyo, Japan). Cuvettes were placed into the J -815 circular -dichroism spectrometer (Jasco, Tokyo, Japan). Measurement parameters were as follows: wavelength, 190 -260 nm; data pitch, 0.2 nm; bandwidth, 1.00 nm; […] Each experiment was performed in triplicate. Data below 197 nm was not analyzed because o f experimental difficulties in obtaining those spectra. Each experiment was performed at least twice. Artificial membrane calcein permeation measurements. Calcein fluorescence was used to measure peptide -induced liposome permeation. Calcein solutions (10 mM, 20 mM, or 60 mM) containing PC/PG liposomes and peptides were diluted in PBS ( ×1, ×2, ×3, ×8). […] Liposome solutions (180 μl) were transferred to wells of black, clear -bottomed 96 -well plates (Costar, New York, USA). Peptide […] Liposome-containing plates and peptide -containing plates were inserted into a Flexstation 3 Multi -Mode Microplate Reader (Molecular Devices, California, USA). Peptide solutions (20 μl) were transferred and mixed with liposome solution automatical ly after 30 sec. […] Measurement parameters were as follows: excitation, 490 nm; emission, 520 nm; temperature, 37 °C. […] was transferred and mixed with the liposome -peptide solu tions automatically after 300 sec to acquire fluorescence at maximum leakage. […] Fluorescence measured between 0 -300 sec after addition of 0 μg/ml peptide was considered the baseline. Each experiment was performed at least twice. Dynamic light scattering (DLS) measurements. Dynamic light scattering was used to measure peptide -induced liposome volume changes. PC/PG -liposome stock solutions and peptides were resuspended in PBS. Liposomes and peptides were mixed to […]
Substance,"Hemolysis percent, 25 μM [1]","Hemolysis percent, 50 μM [1]","Hemolysis percent, 100 μM [1]","MIC in 0.2% albumin and 0.01% AcOH added CLSI standard condition, MDR P. aeruginosa [2]","Minimum inhibitory concentrations, MDR P. aeruginosa [2]","MIC in 0.2% albumin and 0.01% AcOH added CLSI standard condition, MDR E. faecalis [3]","Minimum inhibitory concentrations, MDR E. faecalis [3]","MIC in 0.2% albumin and 0.01% AcOH added CLSI standard condition, MDR S. aureus [4]","Minimum inhibitory concentrations, MDR S. aureus [4]","MIC in 0.2% albumin and 0.01% AcOH added CLSI standard condition, MDR A. baumannii [5]","Minimum inhibitory concentrations, MDR A. baumannii [5]",solubility ([6]; distilled water),Maximum soluble concentration in PBS [6],"MIC at TM potential condition, S. aureus KCCM 40510 ([4]; bacteria OD 0.1 (5 x 10^7 cfu/ml), CAMHB, 1% DMSO)"
GVWVLFRRR-NH2 [Ptg C-ter 3],0.44 ±0.10%,0.80 ±0.09%,1.32 ±0.09%,> 20 µM,> 20 µM,> 20 µM,> 20 µM,> 20 µM,> 20 µM,> 20 µM,> 20 µM,< 500 µM,100 µM,–
WLVWIGRRR-NH2 [Hybrid-2],0.66 ±0.07%,1.21 ±0.01%,2.88 ±1.49%,> 20 µM,> 20 µM,> 20 µM,> 20 µM,> 20 µM,> 20 µM,10 µM,–,–,> 200 µM,–
WLVWVWRRR-NH2 [Hybrid-3],4.26 ±0.63%,5.14 ±0.19%,7.17 ±1.09%,> 20 µM,> 20 µM,2.5 µM,10 µM,5 µM,10 µM,0.63 µM,2.5 µM,–,> 200 µM,–
GVLVLFRRR-NH2 [Ptg C-ter 1],0.40 ±0.10%,0.99 ±0.26%,1.17 ±0.07%,> 20 µM,> 20 µM,> 20 µM,> 20 µM,> 20 µM,> 20 µM,> 20 µM,> 20 µM,–,100 µM,–
WRLWRWIVR-NH2 [HLWCopW29-3],1.10 ±0.14%,1.37 ±0.02%,4.45 ±0.23%,> 20 µM,> 20 µM,20 µM,–,20 µM,–,20 µM,–,–,> 200 µM,–
LLLLLWRRR-NH2 [AcWL-2],14.39 ±0.70%,15.13 ± 2.05%,27.97 ±2.79%,> 20 µM,> 20 µM,10 µM,–,10 µM,–,20 µM,> 20 µM,–,50 µM,–
WLRRWWIRV-NH2 [HLWCopW29-2],1.87 ±0.12%,4.13 ±0.28%,19.60 ±0.50%,> 20 µM,> 20 µM,10 µM,–,10 µM,–,2.5 µM,5 µM,–,> 200 µM,> 20 µM
WLVWVGRRR-NH2 [Hybrid-1],0.88 ±0.24%,1.09 ±0.32%,1.40 ±0.08%,> 20 µM,> 20 µM,> 20 µM,> 20 µM,> 20 µM,> 20 µM,> 20 µM,> 20 µM,–,> 200 µM,–
